Results: US11643400B2, “MCL-1 inhibitors” (Gilead Sciences, Inc., priority 2018, dated 2023)
Like-named read-outs stand apart in the source and are kept apart here.

Legend:
SKBR3 Cells = experiment: SKBR3 Cell Viability Assay; assay type: cell-based; conditions: CellTiter Glo luminescence, read-out: MCL-1 CV SKBR3 EC50
Procedure: SKBR3 Cell Viability Assay Materials
SKBR3 Cells (ATCC HTB-30) were obtained from ATCC (Manassas, Va.) and cultured in McCoy 5A's medium (ATCC 30-2007)+10% fetal bovine serum (SH30071.03, HyClone, Pittsburgh, Pa.) plus 1× Penicillin-Streptomycin L-glutamine (Corning 30-009-C1, Corning, N.Y.)).
The cell viability assay was conducted in a 384-well tissue culture plate (Grenier 781086, Monroe, N.C.) in a total volume of 70 μL. Test compounds were prepared in 1,000×, serially diluted, and pre-spotted into 384-well tissue culture plate by Echo 555 Liquid Handler (Labcyte Inc., San Jose, Calif.). Seventy pi of 6,000 SKBR3 cells were dispensed into each well of the plate and incubated at 37° C. with 5% CO2 for 72 hours. At the end of incubation, 2× CellTiter Glo (CTG) reagents (1 part buffer with 2 parts substrate) (Promega, Madison, Wis.) were prepared, and the plate and the reagent were equilibrated to room temperature for 30 minutes. CTG reagent was added to each plate by Biomek FX at 20 μL/well with 5 times pipetting and mixing to induce cell lysis. Luminescence was read by Envision multimode reader (PerkinElmer). […] Percent inhibition was calculated as followed: % Inhibition=100%*(Well−Neg)/(Pos−Neg) Neg, negative control, DMSO Pos, positive control, 10 μM Puromycin

[1] = target: Recombinant human MCL-1 protein (Homo sapiens (Human), UniProt Q07820); experiment: MCL-1/Bim Binding AlphaLISA Assay; conditions: 6×His-Mcl-1 (171-327) and biotinylated-Bim peptide (51-76)
Procedure: MCL-1/Bim Binding AlphaLISA Assay.
Inhibition of the MCL-1 and Bim interaction was measured in the following AlphaLISA assay.
Recombinant human MCL-1 protein (C-terminal 6×His Tagged Mcl-1 containing residues 171-327) was generated at Gilead Sciences, Inc. (Foster City, Calif.). A biotinylated peptide derived from human Bim (residues 51-76) was purchased from CPC Scientific (Sunnyvale, Calif.). (CPC 834113). AlphaLISA anti-6His-acceptor beads (AL128R), AlphaScreen Streptavidin donor beads (6760002B), and Proxiplate-384 Plus (6008289) were purchased from PerkinElmer.
The AlphaLISA assay was performed in a 384-well Proxiplate in a total volume of 40 μL. The reaction mixture contained 0.0625 nM 6×His-Mcl-1 (171-327), 0.0625 nM biotinylated-Bim peptide, 10 μg/mL AlphaLISA anti-6×His-AlphaLISA acceptor beads, 40 μg/mL AlphaScreen streptavidin donor beads, and serially diluted test compounds in the binding buffer (20 mM Hepes, pH 7.5 (Teknova H1035); 150 mM NaCl (Promega V4221); 0.002% Brij 35 (Thermo Scientific 20150); 1 mM Dithiothreitol (DTT) Solution (Affymetrix 70726); 0.01% BSA (BioLabs B9000S)). 1,000× test compounds were pre-spotted onto 384-well Proxiplate (Labcyte Echo) by Echo 555 Liquid Handler (Labcyte Inc., San Jose, Calif.) followed by incubation of 5 μl Mcl-1 (171-327) for 1 hour. Then 5 μL Bim (51-76) was added and incubated for 2 hours. Five μL AlphaLISA anti-6His-AlphaLISA acceptor beads were then added for 1 hour followed by addition of 5 μL AlphaScreen streptavidin donor beads for 1 hour. The reaction plates were then read on an Envision multimode reader (PerkinElmer) using AlphaScreen settings. […] Percent inhibition was calculated as shown below: % Inhibition=100%*(Well−Neg)/(Pos−Neg) Neg: negative control, DMSO Pos: positive control, no Mcl-1 protein, no biotinylated-Bim peptide

Sequence of Recombinant human MCL-1 protein (Q07820 171-327): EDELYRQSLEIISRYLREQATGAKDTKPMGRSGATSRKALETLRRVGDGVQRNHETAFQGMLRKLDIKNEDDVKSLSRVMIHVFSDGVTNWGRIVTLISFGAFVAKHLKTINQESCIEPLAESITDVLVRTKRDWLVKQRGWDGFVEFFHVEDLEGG

Row | EC50 (SKBR3 Cells; Homo sapiens, SK-BR-3, 72 h) | IC50 [1] | Compound | EC50 (SKBR3 Cells; 72 hours)
1 | 259 nM | – | CO[C@H]1/C=C/CCC[S@@](=O)(NC(=O)CCc2ccnn2C)=NC(=O)c2ccc3c(c2)N(C[C@@H]2CC[C@H]21)C[C@@]1(CCCc2cc(Cl)ccc21)CO3 [Example 22] | –
2 | – | – | COc1nn(C2CC2)cc1C(=O)N[S@@]1(=O)=NC(=O)c2ccc3c(c2)N(C[C@@H]2CC[C@H]2[C@@H](OC)/C=C/C[C@H](C)C1)C[C@@]1(CCCc2cc(Cl)ccc21)CO3 [Example 262] | 85.8 nM
3 | – | – | CCOC1CN(C(=O)N[S@@]2(=O)=NC(=O)c3ccc4c(c3)N(C[C@@H]3CC[C@H]3[C@@H](OC)/C=C/C[C@H](C)C2)C[C@@]2(CCCc3cc(Cl)ccc32)CO4)C1 [Example 235] | 39.8 nM
4 | – | – | CO[C@H]1/C=C/CCC[S@@](=O)(NC(=O)NC2(C(F)(F)F)CC2)=NC(=O)c2ccc3c(c2)N(C[C@@H]2CC[C@H]21)C[C@@]1(CCCc2cc(Cl)ccc21)CO3 [Example 32] | 1480 nM
5 | – | – | CO[C@H]1/C=C/CCC[S@@](=O)(NC(=O)CCc2ccccc2)=NC(=O)c2ccc3c(c2)N(C[C@@H]2CC[C@H]21)C[C@@]1(CCCc2cc(Cl)ccc21)CO3 [Example 97] | 788 nM
6 | 78.3 nM | 0.069 nM | CCc1nn(C)cc1C(=O)N[S@@]1(=O)=NC(=O)c2ccc3c(c2)N(C[C@@H]2CC[C@H]2[C@@H](OC)/C=C/C[C@H](C)[C@H]1C)C[C@@]1(CCCc2cc(Cl)ccc21)CO3 [Example 188] | –
7 | – | – | CO[C@H]1/C=C/CCC[S@@](=O)(NC(=O)COc2ccccc2)=NC(=O)c2ccc3c(c2)N(C[C@@H]2CC[C@H]21)C[C@@]1(CCCc2cc(Cl)ccc21)CO3 [Example 96] | 604 nM
8 | – | – | COc1nn(C)cc1C(=O)N[S@@]1(=O)=NC(=O)c2ccc3c(c2)N(C[C@@H]2CC[C@H]2[C@@H](OC(=O)CC(C)C)/C=C/C[C@H](C)C1)C[C@@]1(CCCc2cc(Cl)ccc21)CO3 [Example 381] | 534 nM
9 | – | – | CO[C@H]1/C=C/C[C@H](C)C[S@@](=O)(NC(=O)N2CC(C#N)C2)=NC(=O)c2ccc3c(c2)N(C[C@@H]2CC[C@H]21)C[C@@]1(CCCc2cc(Cl)ccc21)CO3 [Example 233] | 47.2 nM
10 | – | – | CO[C@H]1/C=C/CCC[S@@](=O)(NC(=O)CCc2ncsc2C)=NC(=O)c2ccc3c(c2)N(C[C@@H]2CC[C@H]21)C[C@@]1(CCCc2cc(Cl)ccc21)CO3 [Example 101] | 2590 nM
11 | – | – | COc1nn(C)cc1C(=O)N[S@@]1(=O)=NC(=O)c2ccc3c(c2)N(C[C@@H]2CC[C@H]2[C@@H](OC(=O)OC(C)C)/C=C/C[C@H](C)C1)C[C@@]1(CCCc2cc(Cl)ccc21)CO3 [Example 384] | 154 nM
12 | – | – | CO[C@H]1/C=C/C[C@H](C)C[S@@](=O)(NC(=O)N2CC3(CCCO3)C2)=NC(=O)c2ccc3c(c2)N(C[C@@H]2CC[C@H]21)C[C@@]1(CCCc2cc(Cl)ccc21)CO3 [Example 231] | 40 nM
13 | – | – | CO[C@H]1/C=C/C[C@H](C)C[S@@](=O)(NC(=O)N2CC(C(C)(C)O)C2)=NC(=O)c2ccc3c(c2)N(C[C@@H]2CC[C@H]21)C[C@@]1(CCCc2cc(Cl)ccc21)CO3 [Example 237] | 121 nM
14 | – | – | COC1CCN(C(=O)N[S@@]2(=O)=NC(=O)c3ccc4c(c3)N(C[C@@H]3CC[C@H]3[C@@H](OC)/C=C/C[C@H](C)C2)C[C@@]2(CCCc3cc(Cl)ccc32)CO4)CC1 [Example 320] | 36.6 nM
15 | – | – | CO[C@H]1/C=C/CCC[S@@](=O)(NC(=O)c2cc3ccccc3n2C)=NC(=O)c2ccc3c(c2)N(C[C@@H]2CC[C@H]21)C[C@@]1(CCCc2cc(Cl)ccc21)CO3 [Example 98] | 2190 nM
16 | – | – | CO[C@H]1/C=C/CCC[S@@](=O)(NC(=O)CCC(F)(F)F)=NC(=O)c2ccc3c(c2)N(C[C@@H]2CC[C@H]21)C[C@@]1(CCCc2cc(Cl)ccc21)CO3 [Example 94] | 902 nM
17 | – | – | CO[C@H]1/C=C/C[C@H](C)C[S@@](=O)(NC(=O)[C@H]2Cc3ccccc3CO2)=NC(=O)c2ccc3c(c2)N(C[C@@H]2CC[C@H]21)C[C@@]1(CCCc2cc(Cl)ccc21)CO3 (single isomer, unassigned) [Example 143] | 219 nM
18 | – | – | CO[C@H]1/C=C/CCC[S@@](=O)(NC(=O)CCc2c(C)cnn2C)=NC(=O)c2ccc3c(c2)N(C[C@@H]2CC[C@H]21)C[C@@]1(CCCc2cc(Cl)ccc21)CO3 [Example 103] | 10000 nM
19 | 4560 nM | 0.702 nM | COc1nn(C)cc1C(=O)N[S@@]1(=O)=NC(=O)c2ccc3c(c2)N(C[C@@H]2CC[C@H]2[C@@H](OC)/C=C/[C@H](OC(=O)c2cn(C)nc2OC)CC1)C[C@@]1(CCCc2cc(Cl)ccc21)CO3 [Example 391] | –
20 | – | – | CO[C@H]1/C=C/CCC[S@@](=O)(NC(=O)COC2CCOCC2)=NC(=O)c2ccc3c(c2)N(C[C@@H]2CC[C@H]21)C[C@@]1(CCCc2cc(Cl)ccc21)CO3 [Example 105] | 351 nM
21 | – | – | CO[C@H]1/C=C/C[C@H](C)C[S@@](=O)(NC(=O)C2CC(OC(F)F)C2)=NC(=O)c2ccc3c(c2)N(C[C@@H]2CC[C@H]21)C[C@@]1(CCCc2cc(Cl)ccc21)CO3 (stereo partly shown) [Example 431] | 233 nM
22 | – | – | CO[C@H]1/C=C/CCC[S@@](=O)(NC(=O)CCCC(F)(F)F)=NC(=O)c2ccc3c(c2)N(C[C@@H]2CC[C@H]21)C[C@@]1(CCCc2cc(Cl)ccc21)CO3 [Example 95] | 1100 nM
23 | – | – | CO[C@H]1/C=C/CCC[S@@](=O)(NC(=O)CCc2csc(C)n2)=NC(=O)c2ccc3c(c2)N(C[C@@H]2CC[C@H]21)C[C@@]1(CCCc2cc(Cl)ccc21)CO3 [Example 99] | 2090 nM
24 | 210 nM | 0.06 nM | CO[C@H]1/C=C/C[C@H](C)C[S@@](=O)(NC(=O)NC2CC2)=NC(=O)c2ccc3c(c2)N(C[C@@H]2CC[C@H]21)C[C@@]1(CCCc2cc(Cl)ccc21)CO3 [Example 170] | –
25 | – | – | CCC1CN(C(=O)N[S@@]2(=O)=NC(=O)c3ccc4c(c3)N(C[C@@H]3CC[C@H]3[C@@H](OC)/C=C/C[C@H](C)C2)C[C@@]2(CCCc3cc(Cl)ccc32)CO4)C1 [Example 242] | 84 nM
26 | – | – | CO[C@H]1/C=C/CCC[S@@](=O)(NC(=O)COc2ccnn2C)=NC(=O)c2ccc3c(c2)N(C[C@@H]2CC[C@H]21)C[C@@]1(CCCc2cc(Cl)ccc21)CO3 [Example 100] | 2260 nM
27 | – | – | CO[C@H]1/C=C/CCC[S@@](=O)(NC(=O)CCc2nnc(C)s2)=NC(=O)c2ccc3c(c2)N(C[C@@H]2CC[C@H]21)C[C@@]1(CCCc2cc(Cl)ccc21)CO3 [Example 102] | 891 nM
28 | 596 nM | 0.2 nM | CO[C@H]1/C=C/CCC[S@@](=O)(NC(=O)CCc2cocn2)=NC(=O)c2ccc3c(c2)N(C[C@@H]2CC[C@H]21)C[C@@]1(CCCc2cc(Cl)ccc21)CO3 [Example 57] | –
29 | – | – | CO[C@H]1/C=C/C[C@H](C)C[S@@](=O)(NC(=O)N2CC3(CCO3)C2)=NC(=O)c2ccc3c(c2)N(C[C@@H]2CC[C@H]21)C[C@@]1(CCCc2cc(Cl)ccc21)CO3 [Example 230] | 47.1 nM
30 | – | – | CCN(CC)C(=O)OC1CN(C(=O)N[S@@]2(=O)=NC(=O)c3ccc4c(c3)N(C[C@@H]3CC[C@H]3[C@@H](OC)/C=C/C[C@H](C)C2)C[C@@]2(CCCc3cc(Cl)ccc32)CO4)C1 [Example 226] | 71.3 nM
